This is an account of results in publication PMC10537368, “Design, Synthesis, and Biological Evaluation of Novel 3-Cyanopyridone/Pyrazoline Hybrids as Potential Apoptotic Antiproliferative Agents Targeting EGFR/BRAF^V600E Inhibitory Pathways” (Molecules, 2023).

Data set [1] concerns colon cancer (HT-29) cell line. Put plainly: Antiproliferative MTT assay, HT-29. The settings on record: Homo sapiens; HT-29, MTT; read-out: Antiproliferative Activity IC50 ± SEM, HT-29. The data set is classed as cell-based. An excerpt: (§1) The median inhibitory concentration (IC50) and GI50 [58]
For data set [2], the system named is four human cancer cell lines (A-549, MCF-7, Panc-1, HT-29). Put plainly: Antiproliferative MTT assay, average over four cancer cell lines (GI50). Type of data set: cell-based. As to conditions: for IC50: Homo sapiens, average IC50 against the four cancer cell lines.
Data set [3] is described as follows: Cell viability MTT assay on MCF-10A normal cells. The data set is classed as cell-based. The settings on record: human, MCF-10A mammary gland epithelial normal cells, MCF-10A cells, four days of incubation. The protocol: The viability of new compounds 21–30 was examined using the human mammary gland epithelial (MCF-10A) cell line. The cell viability of compounds 21–30 was assessed using the MTT assay after four days of incubation on MCF-10A cells.
The human mammary gland epithelial (MCF-10A) normal cell line was utilized to investigate the viability of new derivatives 21–30 [56]. For more information, see Supplementary Materials Files.

Data set [4] has as its target BRAF^V600E (Homo sapiens, UniProt P15056, V600E). Kind of data set: BRAF^V600E inhibitory assay. Type of data set: biochemical. As to conditions: read-out: BRAF^V600E Inhibition IC50 ± SEM.
For data set [5], the system named is Caspase-3 in human epithelial cancer cell line (A-594). Kind of data set: Caspase 3 activation assay. The data set is classed as cell-based. As to conditions: for Caspase-3 Conc: A-594 cell line; for Caspase-3 Fold Change: A-594, vs untreated control cells. An excerpt:
Caspases are essential for the induction and maintenance of apoptosis. Caspase-3 is an important caspase that cleaves several cell proteins, causing apoptosis.
See Supplementary Materials Files.

Data set [6] deals with pancreatic cancer (Panc-1) cell line. Kind of data set: Antiproliferative MTT assay, Panc-1. The data set is classed as cell-based. The settings on record: Homo sapiens; Panc-1, MTT; read-out: Antiproliferative Activity IC50 ± SEM, Panc-1.
Excerpt: as §1

In data set [7] the test system is lung cancer (A-549) cell line. Put plainly: Antiproliferative MTT assay, A-549. Type of data set: cell-based. The settings on record: Homo sapiens, A549; A-549, MTT; read-out: Antiproliferative Activity IC50 ± SEM, A-549.
Excerpt: as §1

Data set [8] concerns breast cancer (MCF-7) cell line. Put plainly: Antiproliferative MTT assay, MCF-7. Type of data set: cell-based. As to conditions: Homo sapiens, MCF7; MCF-7, MTT; read-out: Antiproliferative Activity IC50 ± SEM, MCF-7.
Excerpt: as §1

Data set [9] has as its target EGFR (Homo sapiens, UniProt P00533). Kind of data set: EGFR inhibitory assay. As to conditions: for fold more potent than the reference Erlotinib (EGFR IC50): IC50 ratio vs Erlotinib.
The subject of data set [10] is Caspase-8 in A-594 cancer cell line. Kind of data set: Caspase-8 level assay. Type of data set: cell-based, human. The settings on record: for Caspase-8 Fold Change: A-594, vs untreated control; for Caspase-8 Conc: A-594 cell line.
The test system of data set [11] is Bcl-2 in A-594 cancer cell line. Kind of data set: Bcl-2 level assay. The data set is classed as cell-based, human. The settings on record: for Bcl-2 Fold Reduction: A-594, vs untreated control; for Bcl-2 Conc: A-594 cell line. An excerpt:
[…]. […]. Compared to the untreated control cell, compounds 28 and 30 elevated caspase-8 levels by 25- and 28-fold, respectively.
[…]. Compounds 21, 28, and 30 were investigated as caspase-3, caspase-8, Bax activators, and Bcl-2 down-regulators against the human epithelial cancer cell line (A-594). See Supplementary Materials Files.

The subject of data set [12] is Bax in A-594 cancer cell line. Kind of data set: Bax level assay. The data set is classed as cell-based, human. As to conditions: for Bax Fold Change: A-594, vs untreated control; for Bax Conc: A-594 cell line.

Values joined by “and” are separate entries in the source; they are usually repeats but may differ in a detail not shown here. Identical values can stand only once.

Chain of EGFR (P00533 25-1210): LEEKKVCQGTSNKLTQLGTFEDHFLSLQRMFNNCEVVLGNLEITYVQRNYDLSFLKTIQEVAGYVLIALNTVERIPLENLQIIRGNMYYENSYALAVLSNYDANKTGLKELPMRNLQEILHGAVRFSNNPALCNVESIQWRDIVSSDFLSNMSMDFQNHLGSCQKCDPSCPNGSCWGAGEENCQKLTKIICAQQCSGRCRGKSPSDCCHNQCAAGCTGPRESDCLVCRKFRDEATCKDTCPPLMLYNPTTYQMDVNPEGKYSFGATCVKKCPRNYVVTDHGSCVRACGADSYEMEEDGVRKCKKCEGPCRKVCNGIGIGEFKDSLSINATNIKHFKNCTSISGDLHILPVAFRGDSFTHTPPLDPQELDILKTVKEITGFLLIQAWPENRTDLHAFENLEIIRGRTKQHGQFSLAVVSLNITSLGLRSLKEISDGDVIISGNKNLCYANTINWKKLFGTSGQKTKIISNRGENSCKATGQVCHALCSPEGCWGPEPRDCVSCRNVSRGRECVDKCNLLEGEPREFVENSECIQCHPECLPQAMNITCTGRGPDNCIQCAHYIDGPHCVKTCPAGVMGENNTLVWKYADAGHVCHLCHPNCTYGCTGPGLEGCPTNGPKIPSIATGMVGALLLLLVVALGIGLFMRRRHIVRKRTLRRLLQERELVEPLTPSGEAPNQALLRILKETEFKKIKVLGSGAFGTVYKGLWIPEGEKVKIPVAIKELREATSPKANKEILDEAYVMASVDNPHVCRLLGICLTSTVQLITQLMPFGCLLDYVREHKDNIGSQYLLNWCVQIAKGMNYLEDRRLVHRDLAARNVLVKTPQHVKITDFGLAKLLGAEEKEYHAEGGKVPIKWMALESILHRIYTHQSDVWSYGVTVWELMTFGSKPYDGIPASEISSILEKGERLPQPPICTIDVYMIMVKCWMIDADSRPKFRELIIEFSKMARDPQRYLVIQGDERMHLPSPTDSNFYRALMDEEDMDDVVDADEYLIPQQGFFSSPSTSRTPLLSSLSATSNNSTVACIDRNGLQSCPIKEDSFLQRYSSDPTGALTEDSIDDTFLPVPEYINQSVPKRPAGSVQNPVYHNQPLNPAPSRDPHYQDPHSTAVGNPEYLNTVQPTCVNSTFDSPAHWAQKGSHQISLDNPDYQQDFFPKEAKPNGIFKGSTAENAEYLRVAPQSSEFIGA
Chain of BRAF^V600E (P15056 whole entry V600E): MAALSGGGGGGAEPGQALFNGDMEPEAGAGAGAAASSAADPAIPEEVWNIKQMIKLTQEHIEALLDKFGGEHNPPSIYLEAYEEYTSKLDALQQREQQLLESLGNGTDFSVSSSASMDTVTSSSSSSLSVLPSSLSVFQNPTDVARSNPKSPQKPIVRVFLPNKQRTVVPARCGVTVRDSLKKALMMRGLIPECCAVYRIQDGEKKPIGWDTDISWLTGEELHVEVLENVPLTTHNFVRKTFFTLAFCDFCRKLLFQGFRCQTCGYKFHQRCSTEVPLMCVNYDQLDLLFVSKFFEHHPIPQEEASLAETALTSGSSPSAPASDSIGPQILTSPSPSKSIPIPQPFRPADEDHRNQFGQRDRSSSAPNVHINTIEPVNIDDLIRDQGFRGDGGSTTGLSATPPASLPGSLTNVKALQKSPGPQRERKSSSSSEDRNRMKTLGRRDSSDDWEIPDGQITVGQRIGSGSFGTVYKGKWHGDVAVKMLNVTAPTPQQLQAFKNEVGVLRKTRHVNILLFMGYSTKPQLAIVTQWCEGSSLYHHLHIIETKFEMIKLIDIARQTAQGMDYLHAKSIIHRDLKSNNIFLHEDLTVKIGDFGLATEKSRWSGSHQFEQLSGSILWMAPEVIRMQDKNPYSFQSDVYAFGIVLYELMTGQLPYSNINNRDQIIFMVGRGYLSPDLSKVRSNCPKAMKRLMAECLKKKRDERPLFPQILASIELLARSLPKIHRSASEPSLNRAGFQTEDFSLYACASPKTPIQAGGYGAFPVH

As for `N#Cc1c(-c2ccc(Cl)cc2)cc(-c2ccc(Cl)cc2)n(CC(=O)Nc2ccc(C3=NNC(c4ccccc4)C3)cc2)c1=O` (stereo not shown) [Compound 21, 2-(3-Cyano-4,6-bis(4-chlorophenyl)-2-oxopyridin-1(2H)-yl)-N-(4-(5-phenyl-4,5-dihydro-1H-pyrazol-3-yl)phenyl)acetamide], the IC50 is 28 ± 2 nM in data set [1]; 28 nM in data set [2]; 73 ± 6 nM in data set [4]; 28 ± 2 nM in data set [6]; 26 ± 2 nM in data set [7]; 30 ± 3 nM in data set [8]. The compound further had an IC50 in [9] of 72 ± 5 nM. Further, in data set [3], the viability at 4 days, 50 µM is 90%. Moreover, the “Caspase-3 Conc” value in [5] is 530 ± 5 pg/mL.
With `COc1ccc(-c2cc(-c3ccc(OC)c(OC)c3)n(CC(=O)Nc3ccc(C4=NNC(c5ccccc5)C4)cc3)c(=O)c2C#N)cc1OC` (stereo not shown) [Compound 22, 2-(3-Cyano-4,6-bis(3,4-dimethoxyphenyl)-2-oxopyridin-1(2H)-yl)-N-(4-(5-phenyl-4,5-dihydro-1H-pyrazol-3-yl)phenyl)acetamide], the IC50 in data set [1] was found to be 32 ± 3 nM; in data set [2], 33 nM; in data set [6] it was 34 ± 3 nM; in data set [7], 32 ± 3 nM; in data set [8], 35 ± 3 nM. For the same compound, the “fold less potent than compound 30 (GI50)” value in data set [2] (GI50 ratio vs compound 30) stood at 1.3 fold. The compound also showed a viability at 4 days, 50 µM in [3] of 89%.
Turning to `N#Cc1c(-c2ccc(Cl)cc2)cc(-c2ccc(Cl)cc2)n(CC(=O)Nc2ccc(C3=NNC(c4ccc(Cl)cc4)C3)cc2)c1=O` (stereo not shown) [Compound 23, 2-(3-Cyano-4,6-bis(4-chlorophenyl)-2-oxopyridin-1(2H)-yl)-N-(4-(5-(4-chlorophenyl)-4,5-dihydro-1H-pyrazol-3-yl)phenyl)acetamide], the IC50 in [1] turned out to be 32 ± 3 nM; in data set [2] it was 32 nM; in data set [6], 32 ± 3 nM; in [7], 29 ± 2 nM; in data set [8] it was 34 ± 3 nM. For the same compound, the viability at 4 days, 50 µM in [3] worked out at 91%.
Take `COc1ccc(-c2cc(-c3ccc(OC)c(OC)c3)c(C#N)c(=O)n2CC(=O)Nc2ccc(C3=NNC(c4ccc(OC)c(OC)c4)C3)cc2)cc1` (stereo not shown) [Compound 24, 2-(3-Cyano-4-(3,4-dimethoxyphenyl)-6-(4-methoxyphenyl)-2-oxopyridin-1(2H)-yl)-N-(4-(5-(3,4-dimethoxyphenyl)-4,5-dihydro-1H-pyrazol-3-yl)phenyl)acetamide]: the IC50 in data set [1] stood at 28 ± 2 nM; in data set [2], 29 nM; in data set [4] it was 77 ± 6 nM; in data set [6], 29 ± 2 nM; in [7], 27 ± 2 nM; in data set [8] it was 31 ± 3 nM. This compound yielded an IC50 in data set [9] of 73 ± 5 nM. Besides, the viability at 4 days, 50 µM in data set [3] worked out at 90%.
On to `COc1ccc(C2CC(c3ccc(NC(=O)Cn4c(-c5ccc(Cl)cc5)cc(-c5ccc(Cl)cc5)c(C#N)c4=O)cc3)=NN2)cc1` (stereo not shown) [Compound 25, 2-(3-Cyano-4,6-bis(4-chlorophenyl)-2-oxopyridin-1(2H)-yl)-N-(4-(5-(4-methoxyphenyl)-4,5-dihydro-1H-pyrazol-3-yl)phenyl)acetamide], for which the IC50 amounted to 42 ± 4 nM in [1]; 42 nM in data set [2]; 42 ± 4 nM in data set [6]; 40 ± 3 nM in data set [7]; 45 ± 4 nM in data set [8]. The same compound returned a viability at 4 days, 50 µM in data set [3] of 88%.
Consider `Cc1ccc(C2CC(c3ccc(NC(=O)Cn4c(-c5ccc(Cl)cc5)cc(-c5ccc(Cl)cc5)c(C#N)c4=O)cc3)=NN2)c(C)c1` (stereo not shown) [Compound 26, 2-(3-Cyano-4,6-bis(4-chlorophenyl)-2-oxopyridin-1(2H)-yl)-N-(4-(5-(2,4-dimethylphenyl)-4,5-dihydro-1H-pyrazol-3-yl)phenyl)acetamide], for which the half-inhibitory concentration (IC50) came out at 36 ± 3 nM in data set [1]; 37 nM in data set [2]; 36 ± 3 nM in data set [6]; 35 ± 3 nM in [7]; 40 ± 4 nM in [8]. The compound also registered a viability at 4 days, 50 µM in data set [3] of 92%.
In the case of `N#Cc1c(-c2ccc(Cl)cc2)cc(-c2ccc(Cl)cc2)n(CC(=O)Nc2ccc(C3=NNC(c4ccc(Cl)cc4Cl)C3)cc2)c1=O` (stereo not shown) [Compound 27, 2-(3-Cyano-4,6-bis(4-chlorophenyl)-2-oxopyridin-1(2H)-yl)-N-(4-(5-(2,4-dichlorophenyl)-4,5-dihydro-1H-pyrazol-3-yl)phenyl)acetamide], the IC50 is 38 ± 3 nM in [1]; 38 nM in data set [2]; 38 ± 3 nM in [6]; 36 ± 3 nM in [7]; 42 ± 4 nM in data set [8]. The same compound returned a viability at 4 days, 50 µM in [3] of 88%.
`COc1ccc(C2CC(c3ccc(NC(=O)Cn4c(-c5ccc(OC)c(OC)c5)cc(-c5ccc(OC)c(OC)c5)c(C#N)c4=O)cc3)=NN2)cc1` (stereo not shown) [Compound 28, 2-(3-Cyano-4,6-bis(3,4-dimethoxyphenyl)-2-oxopyridin-1(2H)-yl)-N-(4-(5-(4-methoxyphenyl)-4,5-dihydro-1H-pyrazol-3-yl)phenyl)acetamide]: the “Caspase-8 Fold Change” value in data set [10] is 25 fold. Also, the “Caspase-8 Conc” value in data set [10] is reported as 2.25 ng/mL. Moreover, the IC50 is 26 ± 2 nM in data set [1]; 27 nM in [2]; 65 nM and 69 nM in [4]; 26 ± 2 nM in [6]; 25 ± 2 nM in data set [7]; 30 ± 3 nM in data set [8]. For the same compound, the IC50 in data set [9] turned out to be 70 ± 5 nM. In data set [3], this compound displayed a viability at 4 days, 50 µM of 89%. Also, the “Caspase-3 Fold Change” value in [5] is on record as roughly 9 fold. In addition, the “Caspase-3 Conc” value in data set [5] was 590 ± 5 pg/mL and 595 ± 5 pg/mL. The “fold more potent than the reference Erlotinib (EGFR IC50)” value in data set [9] is 1.2 fold. The “Bcl-2 Fold Reduction” value in [11] was 6 fold. The “Bcl-2 Conc” value in [11] was 0.80 ng/mL. In addition, the “Bax Fold Change” value in data set [12] came to 36 fold. In data set [12], the “Bax Conc” value turned out to be 325 pg/mL.
As to `COc1ccc(C2CC(c3ccc(NC(=O)Cn4c(-c5ccc(Cl)cc5)cc(-c5ccc(Cl)cc5)c(C#N)c4=O)cc3)=NN2)cc1OC` (stereo not shown) [Compound 29, 2-(3-Cyano-4,6-bis(4-chlorophenyl)-2-oxopyridin-1(2H)-yl)-N-(4-(5-(3,4-dimethoxyphenyl)-4,5-dihydro-1H-pyrazol-3-yl)phenyl)acetamide], the IC50 in data set [1] was 30 ± 3 nM; in data set [2] it was 30 nM; in [4], 80 ± 7 nM; in data set [6], 30 ± 3 nM; in data set [7] it was 27 ± 2 nM; in data set [8] it was 31 ± 3 nM. The same compound returned an IC50 in [9] of 75 ± 5 nM. In addition, in data set [3], the viability at 4 days, 50 µM turned out to be 91%.
Consider `COc1ccc(-c2cc(-c3ccc(OC)c(OC)c3)n(CC(=O)Nc3ccc(C4=NNC(c5ccc(OC)c(OC)c5)C4)cc3)c(=O)c2C#N)cc1OC` (stereo not shown) [Compound 30, 2-(3-Cyano-4,6-bis(3,4-dimethoxyphenyl)-2-oxopyridin-1(2H)-yl)-N-(4-(5-(3,4-dimethoxyphenyl)-4,5-dihydro-1H-pyrazol-3-yl)phenyl)acetamide], for which, in data set [10], the “Caspase-8 Fold Change” value came to 28 fold. In data set [10], the “Caspase-8 Conc” value was found to be 2.50 ng/mL. For the same compound, the 50% inhibitory concentration (IC50) in data set [1] was 24 ± 2 nM; in [2] it was 25 nM; in data set [4], 69 nM and 65 nM; in [6], 24 ± 2 nM; in data set [7], 23 ± 2 nM; in data set [8], 28 ± 2 nM. Moreover, half-maximal inhibition in data set [9] (IC50) was put at 68 ± 4 nM. Moreover, the “fold more potent than the reference Erlotinib (GI50)” value in data set [2] (GI50 ratio vs Erlotinib) is given as 1.3 fold. The compound also returned a viability at 4 days, 50 µM in data set [3] of 90%. The “Caspase-3 Fold Change” value in data set [5] is given as roughly 11 fold. Also, in data set [5], the “Caspase-3 Conc” value turned out to be 710 ± 6 pg/mL. The “fold more potent than the reference Erlotinib (EGFR IC50)” value in data set [9] is recorded as 1.2 fold. The “Bcl-2 Fold Reduction” value in data set [11] amounted to 8 fold. In addition, in data set [11], the “Bcl-2 Conc” value was 0.65 ng/mL. Further, the “Bax Fold Change” value in [12] is on record as 38 fold. Further, the “Bax Conc” value in data set [12] was 345 pg/mL.
Consider `C#Cc1cccc(Nc2ncnc3cc(OCCOC)c(OCCOC)cc23)c1` [Erlotinib, reference compound], for which the half-maximal inhibitory concentration (IC50) in data set [1] turned out to be 30 ± 3 nM; in [6], 30 ± 3 nM; in data set [7], 30 ± 3 nM; in data set [8], 40 ± 3 nM.
Take `CN[C@@H]1C[C@H]2O[C@@](C)([C@@H]1OC)n1c3ccccc3c3c4c(c5c6ccccc6n2c5c31)C(=O)NC4` [Staurosporine, reference compound]: the “Caspase-8 Fold Change” value in data set [10] amounted to 21 fold. Also, in data set [5], the “Caspase-3 Fold Change” value is on record as 7 fold. Moreover, in data set [11], the “Bcl-2 Fold Reduction” value amounted to 5 fold and the “Bcl-2 Conc” value stood at 1.00 ng/mL. Also, the “Bax Fold Change” value in data set [12] stood at 32 fold.
